In US12630492B2, “Cannabinoid derivatives” (CANOPY GROWTH CORPORATION, priority 2019, dated 2026):

Key:
[1] = molecular target: T1, human CB1 receptor (Homo sapiens, UniProt P21554); assay: CB1 radioligand competitive binding assay ([3H]CP 55,940 displacement); conditions: [3H]CP 55,940 displacement, membranes of CHO-K1 cells expressing human CB1 receptor; read-out: CB1 IC50
T1 construct: host or cells: CHO-K1 (Chinese hamster ovary) cells, stably transfected; membranes prepared in house

[2] = molecular target: T2, human CB2 receptor (Homo sapiens, UniProt P34972); assay: CB2 radioligand competitive binding assay ([3H]CP 55,940 displacement); conditions: for IC50: [3H]CP 55,940 displacement, membranes of CHO-K1 cells expressing human CB2 receptor, read-out: CB2 IC50; for Selectivity CB2: fold difference between CB1 and CB2 binding, printed in column of receptor with higher affinity, 1.00 in both = same affinity
T2 construct: host or cells: CHO-K1 (Chinese hamster ovary) cells, stably transfected; membranes prepared in house
T2 sequence (P34972 whole entry): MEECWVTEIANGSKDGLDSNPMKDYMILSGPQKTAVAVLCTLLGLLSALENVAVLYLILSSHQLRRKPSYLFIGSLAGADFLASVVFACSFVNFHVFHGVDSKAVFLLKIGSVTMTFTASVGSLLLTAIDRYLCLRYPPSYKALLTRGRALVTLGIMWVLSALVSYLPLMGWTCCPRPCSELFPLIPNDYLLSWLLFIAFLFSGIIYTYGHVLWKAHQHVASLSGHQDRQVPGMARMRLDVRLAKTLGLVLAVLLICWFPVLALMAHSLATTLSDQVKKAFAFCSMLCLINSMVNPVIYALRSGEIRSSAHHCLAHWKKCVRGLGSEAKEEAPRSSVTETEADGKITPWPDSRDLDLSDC

T1 sequence (P21554 whole entry): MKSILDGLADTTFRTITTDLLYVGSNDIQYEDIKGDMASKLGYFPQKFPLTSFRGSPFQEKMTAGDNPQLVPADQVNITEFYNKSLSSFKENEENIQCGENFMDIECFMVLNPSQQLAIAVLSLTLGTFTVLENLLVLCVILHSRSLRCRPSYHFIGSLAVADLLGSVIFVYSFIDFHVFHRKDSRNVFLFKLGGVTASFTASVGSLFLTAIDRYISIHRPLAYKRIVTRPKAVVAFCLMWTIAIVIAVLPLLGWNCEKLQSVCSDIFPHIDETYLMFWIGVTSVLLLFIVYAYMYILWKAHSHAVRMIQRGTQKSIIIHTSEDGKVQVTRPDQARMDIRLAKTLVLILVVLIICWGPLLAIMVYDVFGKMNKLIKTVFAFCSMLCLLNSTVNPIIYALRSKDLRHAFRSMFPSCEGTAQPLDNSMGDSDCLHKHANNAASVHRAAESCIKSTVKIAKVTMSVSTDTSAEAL

| SMILES | IC50 [1] | IC50 [2] | Selectivity CB2 [2] |
| --- | --- | --- | --- |
| C=C(C)C1CCC(C)=CC1c1c(O)cc(CCCCC)cc1OCOC1CCCCC1 (stereo not drawn) [Compound 18d, 6-((cyclohexyloxy)methoxy)-5′-methyl-4-pentyl-2′-(prop-1-en-2-yl)-1′,2′,3′,4′-tetrahydro-[1,1′-biphenyl]-2-ol] | 1 to 9.99 µM | 0.05 to 0.99 µM | 3.23 |
| C=C(C)C1CCC(C)=CC1c1c(O)cc(C(C)(C)CCCCCC)cc1OCOCC (stereo not drawn) [Compound 19d, 6-(ethoxymethoxy)-5′-methyl-4-(2-methyloctan-2-yl)-2′-(prop-1-en-2-yl)-1′,2′,3′,4′-tetrahydro-[1,1′-biphenyl]-2-ol] | 0.05 to 0.99 µM | 0.05 to 0.99 µM | 1.83 |
| C=C(C)C1CCC(C)=CC1c1c(O)cc(C(C)(C)CCCCCC)cc1OCN(C(=O)OC)c1ccccc1 (stereo not drawn) [Compound 20d, methyl (((6-hydroxy-5′-methyl-4-(2-methyloctan-2-yl)-2′-(prop-1-en-2-yl)-1′,2′,3′,4′-tetrahydro-[1,1′-biphenyl]-2-yl)oxy)methyl)(phenyl)carbamate] | 1 to 9.99 µM | 0.05 to 0.99 µM | 1.94 |
| C=C(C)C1CCC(C)=CC1c1c(O)cc(C(C)(C)CCCCCC)cc1OCOC(=O)C(C)(C)C (stereo not drawn) [Compound 21d, ((6-hydroxy-5′-methyl-4-(2-methyloctan-2-yl)-2′-(prop-1-en-2-yl)-1′,2′,3′,4′-tetrahydro-[1,1′-biphenyl]-2-yl)oxy)methyl pivalate] | 1 to 9.99 µM | 1 to 9.99 µM | 1.25 |
| C=C(C)[C@@H]1CCC(C)=C[C@H]1c1c(O)cc(C(C)(C)CCCCCC)cc1OCOC(=O)OCC [Compound 22d, ethyl (((6-hydroxy-5′-methyl-4-(2-methyloctan-2-yl)-2′-(prop-1-en-2-yl)-1′,2′,3′,4′-tetrahydro-[1,1′-biphenyl]-2-yl)oxy)methyl) carbonate] | 0.05 to 0.99 µM | < 0.05 µM | 1.67 |
| C=C(C)[C@@H]1CCC(C)=C[C@H]1c1c(O)cc(CCC)cc1OCOC(=O)C(C)(C)C [Compound 23d, ((6-hydroxy-5′-methyl-2′-(prop-1-en-2-yl)-4-propyl-1′,2′,3′,4′-tetrahydro-[1,1′-biphenyl]-2-yl)oxy)methyl pivalate] | 1 to 9.99 µM | 1 to 9.99 µM | 2.50 |
| C=C(C)[C@@H]1CCC(C)=C[C@H]1c1c(O)cc(CCC)cc1OCOC(=O)OCC [Compound 24d, ethyl (((6-hydroxy-5′-methyl-2′-(prop-1-en-2-yl)-4-propyl-1′,2′,3′,4′-tetrahydro-[1,1′-biphenyl]-2-yl)oxy)methyl) carbonate] | 1 to 9.99 µM | 0.05 to 0.99 µM | 1.52 |
